The values that follow come from article PMC12277590 (Drug Design, Development and Therapy, 2025).

The structures appear in SMILES notation. Where two headings read alike, the source gives them in different places.

The IC50 is the concentration needed to halve the response being measured.

For series [1] the following is noted: cited from earlier work.
Series [2] relates to human UGT1A1. The settings on record: ref 14; cited from earlier work.
The format of series [3] is in vivo, male Sprague-Dawley rats. Conditions: rats.
Series [4] has as its system human UGT1A9. The settings on record: ref 14; cited from earlier work.
In series [5] the test system is UGT1A3. The settings on record: ref 14; cited from earlier work.
The conditions of series [6]: oral intake in human; cited from earlier work.
Series [7] has as its system plasma proteins. Conditions: cited from earlier work.
The conditions of series [8]: markedly low water solubility and high permeability; cited from earlier work.
Series [9] concerns MRP2. The settings on record: read-out: IC50, MRP2; cited from earlier work.
For series [10], the system named is CYP2C19. Conditions: in vitro; cited from earlier work.
The conditions of series [11]: cited from earlier work. This is another data set of the same source.
Series [12] has as its system BCRP. Conditions: read-out: IC50, BCRP; cited from earlier work.
Series [13] deals with P-gp. The settings on record: read-out: IC50, P-gp; cited from earlier work.
[14] abbreviates: oral sorafenib in humans, mass balance.
Setting [15] is: after multiple doses of telmisartan vs sorafenib alone.
[16] abbreviates: after multiple doses of donafenib vs telmisartan alone.
Setting [17] is: after multiple doses of telmisartan vs donafenib alone.

In the case of `CNC(=O)c1cc(Oc2ccc(NC(=O)Nc3ccc(Cl)c(C(F)(F)F)c3)cc2)ccn1` [Sorafenib], in [1] (setting [14]), the “drug eliminated as oxidative metabolites” value is recorded as “less than 5%” and the “drug eliminated as sorafenib-β-D-glucuronide (SG)” value is 15%. The “inhibition of human UGT1A1” value in series [2] is “potent inhibitor”. Also, in series [3] (setting [15]), the “decrease in CLz/F of sorafenib” value is listed as 46.0%, the “decrease in Vz/F of sorafenib” value was determined as 50.4%, the “increase in AUC0-t of sorafenib” value amounted to 77.7% and the “increase in AUC0-∞ of sorafenib” value worked out at 75.8%. For the same molecule, in series [3] (setting [15]), the “increase in Cmax of sorafenib” value is 60.9%. Moreover, the “inhibition of human UGT1A9” value in [4] is listed as “potent inhibitor”. In addition, the “inhibitory effects on UGT1A3” value in series [5] was “no inhibitory effects”. In [6], the “time to maximum plasma concentration” value was “about 3 hours”. Also, the “binding to plasma proteins” value in [7] (sorafenib, human) is “more than 99%”.

In the case of `CCCc1nc2c(C)cc(-c3nc4ccccc4n3C)cc2n1Cc1ccc(-c2ccccc2C(=O)O)cc1` [Telmisartan], the BCS class entry in series [8] is listed as “class II”. Further, the 50% inhibitory concentration (IC50) in [9] was 38.2 µM; in series [12], 6.7 µM; in series [13] it was 12.4 µM. Moreover, in [10], the “inhibition of CYP2C19” value is “minor inhibition”. In addition, in series [3] (setting [16]), the “decrease in CLz/F of telmisartan” value came out at 57.3%. Also, in [3] (setting [16]), the “decrease in Vz/F of telmisartan” value is reported as 45.6%. The “increase in AUC0-∞ of telmisartan” value in series [3] (setting [16]) stood at 0.98 fold. In addition, in [3] (multiple doses of sorafenib vs telmisartan alone), the “effect of sorafenib on the pharmacokinetic parameters of telmisartan” value is on record as “does not significantly affect”. The “proportion metabolized to acyl-glucuronides by UGT1A3” value in [11] (ref 25,27) and in series [11] (ref 34) was 11% throughout. The half-life for elimination entry in [11] (ref 26) was “about 24 hours”. Besides, in series [7] (telmisartan), the “binding to plasma proteins” value is 99.5%.

Regarding `[2H]C([2H])([2H])NC(=O)c1cc(Oc2ccc(NC(=O)Nc3ccc(Cl)c(C(F)(F)F)c3)cc2)ccn1` [Donafenib], in series [1] (ref 41), the “N-oxidation (M2), % of total drug” value is listed as 24.76% and the “glucuronidation (M7), % of total drug” value is recorded as 4.82%. Also, in [3] (setting [17]), the “decrease in t1/2 of donafenib” value turned out to be 35.0% and the “increase in CLz/F of donafenib” value turned out to be 87.5%.
